This passage reports IC50 results from US12122767B2, “Bicyclic heterocycles as FGFR inhibitors” (Incyte Corporation, priority 2019, dated 2024).

The structures appear in SMILES notation.

The target in this experiment is T1, FGFR3 enzyme (Millipore) (Homo sapiens, UniProt P22607).
T1 construct: purchased Millipore
T1 sequence (P22607 23-806): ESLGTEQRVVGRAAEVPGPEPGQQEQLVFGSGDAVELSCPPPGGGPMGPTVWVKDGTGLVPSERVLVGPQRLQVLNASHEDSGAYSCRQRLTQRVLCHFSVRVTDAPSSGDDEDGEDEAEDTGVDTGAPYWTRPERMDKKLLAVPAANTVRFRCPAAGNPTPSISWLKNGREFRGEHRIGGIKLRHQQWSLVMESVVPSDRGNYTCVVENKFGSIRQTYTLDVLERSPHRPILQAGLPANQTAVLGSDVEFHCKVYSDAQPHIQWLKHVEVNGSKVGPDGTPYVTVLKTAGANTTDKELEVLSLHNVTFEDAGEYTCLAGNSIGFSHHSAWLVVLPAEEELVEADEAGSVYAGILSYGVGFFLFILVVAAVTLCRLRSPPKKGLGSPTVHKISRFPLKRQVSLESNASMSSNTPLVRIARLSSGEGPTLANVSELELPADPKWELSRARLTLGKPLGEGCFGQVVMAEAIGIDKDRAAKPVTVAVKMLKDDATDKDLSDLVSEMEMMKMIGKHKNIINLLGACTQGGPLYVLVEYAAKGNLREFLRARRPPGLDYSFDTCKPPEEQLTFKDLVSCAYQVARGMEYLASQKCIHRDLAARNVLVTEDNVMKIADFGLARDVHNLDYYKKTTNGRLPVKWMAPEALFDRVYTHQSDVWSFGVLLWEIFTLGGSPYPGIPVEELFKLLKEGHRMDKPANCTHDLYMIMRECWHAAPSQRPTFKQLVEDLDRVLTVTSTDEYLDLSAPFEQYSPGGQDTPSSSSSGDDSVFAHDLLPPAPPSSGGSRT
Description: FGFR Enzymatic Assay (peptide phosphorylation, FRET). As to conditions: pre-incubated for 4 hours; ATP 140 μM, peptide 500 nM. Format: biochemical. The protocol:
The inhibitor potency of the exemplified compounds was measured in an enzyme assay that measures peptide phosphorylation using FRET measurements to detect product formation. Inhibitors were serially diluted in DMSO and a volume of 0.5 μL was transferred to the wells of a 384-well plate. For FGFR3, a 10 μL volume of FGFR3 enzyme (Millipore) diluted in assay buffer (50 mM HEPES, 10 mM MgCl2, 1 mM EGTA, 0.01% Tween-20, 5 mM DTT, pH 7.5) was added to the plate and pre-incubated for a time between 5-10 minutes and up to 4 hours. Appropriate controls (enzyme blank and enzyme with no inhibitor) were included on the plate. The assay was initiated by the addition of a 10 μL solution containing biotinylated EQEDEPEGDYFEWLE peptide substrate (SEQ ID NO: 1) and ATP (final concentrations of 500 nM and 140 μM respectively) in assay buffer to the wells. The plate was incubated at 25° C. for 1 hr. The reactions were ended with the addition of 10 μL/well of quench solution (50 mM Tris, 150 mM NaCl, 0.5 mg/mL BSA, pH 7.8; 30 mM EDTA with Perkin Elmer Lance Reagents at 3.75 nM Eu-antibody PY20 and 180 nM APC-Streptavidin). The plate was allowed to equilibrate for ˜1 hr before scanning the wells on a PheraStar plate reader (BMG Labtech).
GraphPad prism3 was used to analyze the data. The IC50 values were derived by fitting the data to the equation for a sigmoidal dose-response with a variable slope. Y=Bottom+(Top-Bottom)/(1+10^((Log IC50−X)*HillSlope)) where X is the logarithm of concentration and Y is the response.
Table 1 provides IC50 data for compounds of the invention assayed in the FGFR Enzymatic Assay after dilution in assay buffer, added to the plate and pre-incubated for 4 hours.
The IC50 is the concentration that inhibits the measured activity by half. A low value points to greater potency in that assay. For `COc1cc2[nH]nc(-c3cnn(C)c3)c2cc1C(=O)Nc1c(C)cccc1C` [Example 1, N-(2,6-Dimethylphenyl)-6-methoxy-3-(1-methyl-1H-pyrazol-4-yl)-1H-indazole-5-carboxamide], the IC50 is under 10 nM.

`COc1cc2[nH]nc(-c3cnn(C)c3)c2cc1C(=O)Nc1c(F)cccc1Cl` [Example 2, N-(2-Chloro-6-fluorophenyl)-6-methoxy-3-(1-methyl-1H-pyrazol-4-yl)-1H-indazole-5-carboxamide] displayed an IC50 of under 10 nM.

Compound `COc1cc2[nH]nc(-c3cnn(C)c3)c2cc1C(=O)Nc1c(C)cccc1Cl` [Example 3, N-(2-Chloro-6-methylphenyl)-6-methoxy-3-(1-methyl-1H-pyrazol-4-yl)-1H-indazole-5-carboxamide] came in with an IC50 of under 10 nM.

The compound `COc1cc2[nH]nc(-c3cnn(C)c3)c2cc1C(=O)Nc1c(C)cccc1C(F)(F)F` [Example 4, 6-Methoxy-3-(1-methyl-1H-pyrazol-4-yl)-N-(2-methyl-6-(trifluoromethyl)phenyl)-1H-indazole-5-carboxamide] displayed an IC50 of under 10 nM.

On to `COc1cc2[nH]nc(-c3cnn(C)c3)c2cc1C(=O)Nc1c(C)cc(F)cc1C` [Example 5, N-(4-Fluoro-2,6-dimethylphenyl)-6-methoxy-3-(1-methyl-1H-pyrazol-4-yl)-1H-indazole-5-carboxamide], for which the IC50 is under 10 nM.

Turning to `CCc1cccc(C)c1NC(=O)c1cc2c(-c3cnn(C)c3)n[nH]c2cc1OC` [Example 6, N-(2-Ethyl-6-methylphenyl)-6-methoxy-3-(1-methyl-1H-pyrazol-4-yl)-1H-indazole-5-carboxamide], the IC50 was under 10 nM.

`CCc1cccc(CC)c1NC(=O)c1cc2c(-c3cnn(C)c3)n[nH]c2cc1OC` [Example 7, N-(2,6-Diethylphenyl)-6-methoxy-3-(1-methyl-1H-pyrazol-4-yl)-1H-indazole-5-carboxamide] displayed an IC50 of under 10 nM.

Take `COc1cc2[nH]nc(-c3cnn(C)c3)c2cc1C(=O)Nc1c(C)cccc1F` [Example 8, N-(2-Fluoro-6-methylphenyl)-6-methoxy-3-(1-methyl-1H-pyrazol-4-yl)-1H-indazole-5-carboxamide]: the IC50 is under 10 nM.

`COc1cc2[nH]nc(-c3cnn(C)c3)c2cc1C(=O)Nc1c(C)cccc1OC` [Example 9, 6-Methoxy-N-(2-methoxy-6-methylphenyl)-3-(1-methyl-1H-pyrazol-4-yl)-1H-indazole-5-carboxamide] returned an IC50 of 30 to 200 nM.

`COc1cc(C)c(NC(=O)c2cc3c(-c4cnn(C)c4)n[nH]c3cc2OC)c(C)c1` [Example 10, 6-Methoxy-N-(4-methoxy-2,6-dimethylphenyl)-3-(1-methyl-1H-pyrazol-4-yl)-1H-indazole-5-carboxamide] returned an IC50 of 30 to 200 nM.

`COc1cc2[nH]nc(-c3cnn(C)c3)c2cc1C(=O)Nc1c(C)cc(C#N)cc1C` [Example 11, N-(4-Cyno-2,6-dimethylphenyl)-6-methoxy-3-(1-methyl-1H-pyrazol-4-yl)-1H-indazole-5-carboxamide] returned an IC50 of 10 to 30 nM.

In the case of `Cc1cc2[nH]nc(-c3cnn(C)c3)c2cc1C(=O)Nc1c(C)cccc1C` [Example 12, N-(2,6-Dimethylphenyl)-6-methyl-3-(1-methyl-1H-pyrazol-4-yl)-1H-indazole-5-carboxamide], the IC50 is at least 200 nM.

`Cc1cccc(C)c1NC(=O)c1cc2c(-c3cnn(C)c3)n[nH]c2cc1Cl` [Example 13, 6-Chloro-N-(2,6-dimethylphenyl)-3-(1-methyl-1H-pyrazol-4-yl)-1H-indazole-5-carboxamide] gave an IC50 of 30 to 200 nM.

Consider `Cc1cc2[nH]nc(-c3cnn(C)c3)c2cc1C(=O)Nc1c(C)cccc1F` [Example 14, N-(2-Fluoro-6-methylphenyl)-6-methyl-3-(1-methyl-1H-pyrazol-4-yl)-1H-indazole-5-carboxamide], for which the IC50 was at least 200 nM.

For the compound `Cc1cccc(F)c1NC(=O)c1cc2c(-c3cnn(C)c3)n[nH]c2cc1Cl` [Example 15, 6-Chloro-N-(2-fluoro-6-methylphenyl)-3-(1-methyl-1H-pyrazol-4-yl)-1H-indazole-5-carboxamide], the IC50 was at least 200 nM.

`Cn1cc(-c2n[nH]c3cc(Cl)c(C(=O)Nc4c(F)cccc4Cl)cc23)cn1` [Example 16, 6-Chloro-N-(2-chloro-6-fluorophenyl)-3-(1-methyl-1H-pyrazol-4-yl)-1H-indazole-5-carboxamide] registered an IC50 of at least 200 nM.

The compound `COc1cc2[nH]nc(-c3cnn(C4CCC4)c3)c2cc1C(=O)Nc1c(F)cccc1Cl` [Example 17, N-(2-Chloro-6-fluorophenyl)-3-(1-cyclobutyl-1H-pyrazol-4-yl)-6-methoxy-1H-indazole-5-carboxamide] showed an IC50 of under 10 nM.

`COc1cc2[nH]nc(-c3cnn(C4CC4)c3)c2cc1C(=O)Nc1c(F)cccc1Cl` [Example 18, N-(2-Chloro-6-fluorophenyl)-3-(1-cyclopropyl-1H-pyrazol-4-yl)-6-methoxy-1H-indazole-5-carboxamide] registered an IC50 of 10 to 30 nM.

`CCNC(=O)Cn1cc(-c2n[nH]c3cc(OC)c(C(=O)Nc4c(C)cccc4C)cc23)cn1` [Example 19, N-(2,6-Dimethylphenyl)-3-(1-(2-(ethylamino)-2-oxoethyl)-1H-pyrazol-4-yl)-6-methoxy-1H-indazole-5-carboxamide] displayed an IC50 of 10 to 30 nM.

With `COc1cc2[nH]nc(-c3ccc(N4CCN(C(C)=O)CC4)cc3)c2cc1C(=O)Nc1c(C)cccc1C` [Example 20, 3-(4-(4-Acetylpiperazin-1-yl)phenyl)-N-(2,6-dimethylphenyl)-6-methoxy-1H-indazole-5-carboxamide], the IC50 was under 10 nM.

In the case of `COc1cc2[nH]nc(-c3ccc(N4CCN(C)CC4)cc3)c2cc1C(=O)Nc1c(C)cccc1C` [Example 21, N-(2,6-Dimethylphenyl)-6-methoxy-3-(4-(4-methylpiperazin-1-yl)phenyl)-1H-indazole-5-carboxamide], the IC50 was under 10 nM.

With `COc1cc2[nH]nc(-c3cnn(C4CN(C(=O)N(C)C)C4)c3)c2cc1C(=O)Nc1c(C)cccc1C` [Example 22, 3-(1-(1-(Dimethylcarbamoyl)azetidin-3-yl)-1H-pyrazol-4-yl)-N-(2,6-dimethylphenyl)-6-methoxy-1H-indazole-5-carboxamide], the IC50 is under 10 nM.

For `CCOC(=O)N1CC(n2cc(-c3n[nH]c4cc(OC)c(C(=O)Nc5c(C)cccc5C)cc34)cn2)C1` [Example 23, Ethyl 3-(4-(5-((2,6-Dimethylphenyl)carbamoyl)-6-methoxy-1H-indazol-3-yl)-1H-pyrazol-1-yl)azetidine-1-carboxylate], the IC50 is under 10 nM.

`COC(=O)N1CCC(n2cc(-c3n[nH]c4cc(OC)c(C(=O)Nc5c(C)cccc5C)cc34)cn2)CC1` [Example 24, Methyl 4-(4-(5-((2,6-dimethylphenyl)carbamoyl)-6-methoxy-1H-indazol-3-yl)-1H-pyrazol-1-yl)piperidine-1-carboxylate] returned an IC50 of under 10 nM.

Consider `COc1cc2[nH]nc(-c3cnn(C4CCN(C(C)=O)CC4)c3)c2cc1C(=O)Nc1c(C)cccc1C` [Example 25, 3-(1-(1-Acetylpiperidin-4-yl)-1H-pyrazol-4-yl)-N-(2,6-dimethylphenyl)-6-methoxy-1H-indazole-5-carboxamide], for which the IC50 was under 10 nM.
